Key:
[1] = system: SW620 cells (KRAS G12V); assay: Cell-based pERK HTRF assay in SW620 cell (Biological Example 4); settings: pERK HTRF
Method: A pERK assay (Perkin Elmer) was used to determine the effectiveness of compounds in disrupting KRAS G12V protein/effector signaling in cells.
On Day 1, cells (SW620) were seeded into 96-well plates at 3×10^4 cells/well in 80 μL complete growth media (RPMI, 10% FBS).
On Day 2, cells were treated with compounds at 0.25% DMSO. The source plate was created with compounds diluted in media at 5-fold the final assay concentration. The compounds were run in a 9-point concentration curve starting at 1 μM, with a half-log dilution between concentrations. Twenty μL was transferred onto the cell plates (final volume in wells was 100 μL). Plates were harvested after 4 h incubation by aspirating media and adding kit-supplied 1x supplemented lysis buffer to all wells (50 μL per well). Plates were then placed on a plate shaker and incubated at 850 rpm for an additional 30 min.
Antibody mixture solution was prepared by diluting aliquoted d2 and Eu Cryptate antibodies 1:20 in kit supplied detection buffer and mixing the diluted antibodies solutions (1:1 v:v).
Samples were homogenized by pipetting up and down and then transferred (16 μL of cell lysates) from the 96-well cell culture plate to two wells of the HTRF 384-well detection plate containing the antibody solution. Plates were centrifuged (524 g for Imin) and allowed to incubate between 4 and 24 h at room temperature. […] Plates were centrifuged again (524 g for 1 min), then analyzed on the En Vision plate reader using the following settings: Excitation 320 nm, Bandwidth 75 nm; Emission 615 nm, Bandwidth 85 nm; Gain 100%; Flashes 100; Lag 60 μs.

[2] = target: T1, Avi-KRAS WT (1-169) GppNHp/RAF1 RBD-3xFLAG (52-151) (Homo sapiens, UniProt P01116); assay: Raf1-KRAS WT-GppNHP disruption HTRF assay (Biological Example 1); assay type: binding
T1 construct: Avi-KRAS WT (1-169)
Outline: (§1)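 Compounds were tested for disruption of KRAS–RAF1 RBD binding by HTRF in 50 mM Tris pH 7.5, 100 mM NaCl, 5 mM MgCl2, 0.1% BSA, 0.01% Tween, 10% DMSO. Protein mix was incubated 1 h at room temperature with shaking, then detection reagents added for another 1 h. Activity expressed as percent of DMSO control.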

[3] = target: T2, Avi-KRAS G12R (1-169) GppNHp/RAF1 RBD-3xFLAG (52-151) (Homo sapiens, UniProt P01116, G12R); assay: Raf1-KRAS G12R-GppNHP disruption HTRF assay (Biological Example 1); assay type: binding
T2 construct: Avi-KRAS G12R (1-169)
Outline: as §1

[4] = target: T3, Avi-KRAS G12V (1-169) GppNHp/RAF1 RBD-3xFLAG (52-151) (Homo sapiens, UniProt P01116, G12V); assay: Raf1-KRAS G12V-GppNHP disruption HTRF assay (Biological Example 1); assay type: binding
T3 construct: Avi-KRAS G12V (1-169)
Outline: as §1

[5] = target: T4, Avi-KRAS G12D (1-169) GppNHp/RAF1 RBD-3xFLAG (52-151) (Homo sapiens, UniProt P01116, G12D); assay: Raf1-KRAS G12D-GppNHP disruption HTRF assay (Biological Example 1); assay type: binding
T4 construct: Avi-KRAS G12D (1-169)
Outline: as §1

[6] = system: GP2d cells (KRAS G12D); assay: Cell-based pERK HTRF assay in GP2d cell (Biological Example 2); settings: GP2d (KRAS G12D) cells, pERK HTRF
Outline: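 Cells grown in DMEM with 10% FBS were exposed to compound for 60 min at 0.25% DMSO, using a 9-point half-log series starting at 1 μM or 100 nM. Lysates were then mixed with d2 and Eu cryptate antibodies for 4–24 h at room temperature, and pERK was read by HTRF.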

[7] = Homo sapiens, SW-620, SW620 (KRAS G12V) cells
[8] = KRAS WT, GppNHp-loaded, Table 11
[9] = KRAS G12R, GppNHp-loaded, Table 11
[10] = KRAS G12V, GppNHp-loaded, Table 11
[11] = KRAS G12D, GppNHp-loaded, Table 11
[12] = Homo sapiens, SW-620, SW620 (KRAS G12V) cells, class symbols
[13] = KRAS WT, GppNHp-loaded, class symbols
[14] = KRAS G12R, GppNHp-loaded, class symbols
[15] = KRAS G12V, GppNHp-loaded, class symbols
[16] = KRAS G12D, GppNHp-loaded, class symbols

T4 sequence (P01116 1-169 isoform P01116-2 G12D): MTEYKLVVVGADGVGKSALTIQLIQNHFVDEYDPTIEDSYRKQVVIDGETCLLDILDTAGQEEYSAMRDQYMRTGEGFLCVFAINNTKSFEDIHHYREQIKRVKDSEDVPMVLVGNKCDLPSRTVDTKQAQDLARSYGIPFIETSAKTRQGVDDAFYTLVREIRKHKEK
T3 sequence (P01116 1-169 isoform P01116-2 G12V): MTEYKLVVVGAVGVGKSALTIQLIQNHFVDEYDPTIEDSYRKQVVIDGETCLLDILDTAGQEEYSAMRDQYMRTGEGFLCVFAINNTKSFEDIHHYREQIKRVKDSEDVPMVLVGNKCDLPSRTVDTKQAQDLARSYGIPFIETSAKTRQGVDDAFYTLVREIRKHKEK
T2 sequence (P01116 1-169 isoform P01116-2 G12R): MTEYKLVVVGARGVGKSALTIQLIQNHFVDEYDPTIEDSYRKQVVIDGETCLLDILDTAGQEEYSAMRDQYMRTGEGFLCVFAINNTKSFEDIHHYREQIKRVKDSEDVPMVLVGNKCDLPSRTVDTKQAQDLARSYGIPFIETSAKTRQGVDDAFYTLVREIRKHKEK
T1 sequence (P01116 1-169 isoform P01116-2): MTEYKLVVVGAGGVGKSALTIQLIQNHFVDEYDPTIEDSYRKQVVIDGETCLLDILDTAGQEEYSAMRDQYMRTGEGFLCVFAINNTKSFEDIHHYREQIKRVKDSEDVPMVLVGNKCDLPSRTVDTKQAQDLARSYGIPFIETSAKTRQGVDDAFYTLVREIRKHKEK

| Compound | IC50 [1, 7] [nM] | IC50 ([2]; KRAS WT-GppNHp/RAF1 RBD HTRF) [nM] | IC50 ([3]; KRAS G12R-GppNHp/RAF1 RBD HTRF) [nM] | IC50 ([4]; KRAS G12V-GppNHp/RAF1 RBD HTRF) [nM] | IC50 ([5]; KRAS G12D-GppNHp/RAF1 RBD HTRF) [nM] | IC50 ([6]; GP2d) [nM] | IC50 [1, 12] [nM] | IC50 [2, 13] [nM] | IC50 [3, 14] [nM] | IC50 [4, 15] [nM] | IC50 [5, 16] [nM] | IC50 ([6]; GP2d, class symbols) [nM] | further results |
| --- | --- | --- | --- | --- | --- | --- | --- | --- | --- | --- | --- | --- | --- |
| CCN(c1nc(OC[C@@]23CCCN2C[C@H](F)C3)nc2c(F)c(-c3ccc(F)c4sc(N)c(C#N)c34)c(C(F)(F)F)cc12)[C@H]1CCN(C(=O)N2CCCC2)C1 [Compound 542] | < 100 | < 100 | < 100 | < 100 | < 100 | < 100 | – | – | – | – | – | – | – |
| N#Cc1c(N)sc2c(F)ccc(-c3c(C(F)(F)F)cc4c(N5CCCN6C(=O)CCC6C5)nc(OCC56CCCN5CC(F)C6)nc4c3F)c12 (stereo not drawn) [Compound 490] | – | 1000 to 10000 | 1000 to 10000 | 1000 to 10000 | 100 to 1000 | – | – | – | – | – | – | – | IC50 ([1]; SW620 (KRAS G12V) cells): 100 to 1000 nM; IC50 [6]: 100 to 1000 nM |
| N#Cc1c(N)sc2c(F)ccc(-c3c(C(F)(F)F)cc4c(N5CCc6cn[nH]c6C5)nc(OC[C@@]56CCCN5C[C@H](F)C6)nc4c3F)c12 [Compound 354] | < 100 | 1000 to 10000 | 1000 to 10000 | > 10000 | 1000 to 10000 | 100 to 1000 | – | – | – | – | – | – | – |
| C[C@H]1COC[C@H](C)N1c1nc(OC[C@@]23CCCN2C[C@H](F)C3)nc2c(F)c(-c3ccc(F)c4sc(N)c(C#N)c34)c(C(F)(F)F)cc12 [Compound 200] | 100 to 1000 | – | – | – | – | < 100 | – | – | – | – | – | – | IC50 [2, 8]: 1000 to 10000 nM; IC50 [3, 9]: 1000 to 10000 nM; IC50 [4, 10]: 1000 to 10000 nM; IC50 [5, 11]: 1000 to 10000 nM |
| CCN(c1nc(OC[C@@]23CCCN2C[C@H](F)C3)nc2c(F)c(-c3ccc(F)c4sc(N)c(C#N)c34)c(C(F)(F)F)cc12)[C@H]1CCS(=O)(=O)C1 [Compound 350] | < 100 | 100 to 1000 | 100 to 1000 | 100 to 1000 | 100 to 1000 | < 100 | – | – | – | – | – | – | – |
| CCN(c1nc(OC[C@@]23CCCN2C[C@H](F)C3)nc2c(F)c(-c3ccc(F)c4sc(N)c(C#N)c34)c(C(F)(F)F)cc12)[C@H]1CCN(C(=O)c2cocn2)C1 (atropisomer, axis not shown) [Compound 719] | – | – | – | – | – | – | < 100 | < 100 | < 100 | < 100 | < 100 | < 100 | – |
| N#Cc1c(N)sc2c(F)ccc(-c3c(C(F)(F)F)cc4c(N5CCN6C(=O)CCC6C5)nc(OCC56CCCN5CC(F)C6)nc4c3F)c12 (stereo not drawn) [Compound 412] | < 100 | 100 to 1000 | 100 to 1000 | 100 to 1000 | 100 to 1000 | < 100 | – | – | – | – | – | – | – |
| CC(C)C(=O)N1CC[C@H](N(C)c2nc(OC[C@@]34CCCN3C[C@H](F)C4)nc3c(F)c(-c4ccc(F)c5sc(N)c(C#N)c45)c(C(F)(F)F)cc23)C1 (atropisomer, axis not shown) [Compound 786] | – | – | – | – | – | – | < 100 | 100 to 1000 | < 100 | 100 to 1000 | < 100 | < 100 | – |
| CCN(c1nc(OC[C@@]23CCCN2C[C@H](F)C3)nc2c(F)c(-c3ccc(F)c4sc(N)c(C#N)c34)c(C(F)(F)F)cc12)[C@@H]1CCN(C(=O)[C@H]2CCO2)[C@@H]1C (atropisomer, axis not shown) [Compound 788] | – | – | – | – | – | – | < 100 | < 100 | < 100 | < 100 | < 100 | < 100 | – |
| N#Cc1c(N)sc2c(F)ccc(-c3c(C(F)(F)F)cc4c(N5C[C@@H]6C[C@H]5CO6)nc(OC[C@@]56CCCN5C[C@H](F)C6)nc4c3F)c12 [Compound 259] | < 100 | – | – | – | – | < 100 | – | – | – | – | – | – | IC50 [2, 8]: 100 to 1000 nM; IC50 [3, 9]: 100 to 1000 nM; IC50 [4, 10]: 1000 to 10000 nM; IC50 [5, 11]: 100 to 1000 nM |
